Test results taken from publication PMC10694292, “Increased sinusoidal export of drug glucuronides is a compensative mechanism in liver cirrhosis of mice” (Frontiers in Pharmacology, 2023).
“And” between values parts separate entries of the source, which are not always exact repeats. Equal values may be shown once. Read-outs that look alike come from different tables or passages of the source.

Legend:
[1] = cited from earlier work
[2] = mouse, in vivo; for Fraction of dose in urine (24 h), cirrhotic vs control mice: iv
[3] = humans, cited from earlier work
[4] = cited from earlier work; for Fraction unbound: mouse
[5] = cited from earlier work; remark: listed apart in the source
[6] = Drug cocktail i.v. in mice: 24 h urine, fraction of dose excreted; details: mice, after drug cocktail administration
[7] = Drug cocktail i.v. in CCl4-cirrhotic and control mice: plasma concentrations and AUC; details: accompanying increased glucuronides
[8] = human, cited from earlier work
[9] = cited from earlier work; remark: listed apart in the source
[10] = rat, cited from earlier work
[11] = cited from earlier work; remark: listed apart in the source
OATP1B1 = system: OATP1B1; parameters: method as in Nakai et al., 2001; details: human, experimental; ref Nakai et al., 2001; cited from earlier work
[12] = human, cited from earlier work; remark: listed apart in the source
[13] = Drug cocktail i.v. in mice: 2 h bile, fraction of dose excreted
[14] = DrugBank, ref Wishart et al., 2017
[15] = optimized (mouse), ref Schenk et al., 2017
[16] = optimized (talinolol: possibly optimized), ref Thiel et al., 2015
[17] = DrugBank, predicted AlogPS, ref Wishart et al., 2017
[18] = DrugBank, predicted ChemAxon, ref Wishart et al., 2017

## Cn1c(=O)c2c(ncn2C)n(C)c1=O [Caffeine, caffeine]
[1]; C57BL/6N mice, ref Buters et al., 1996
  Share of systemic clearance due to Cyp1a2: 88%
[1]; mice, ref Bonati et al., 1985
  Fraction excreted unchanged to urine: about 5%
[2]
  Mean fraction of dose excreted to urine: 1%
[3]; ref Nehlig, 2018
  Fraction excreted unchanged to urine: 0.5-2%
[4]
  Fraction unbound: 0.70

## Cc1ncc2n1-c1ccc(Cl)cc1C(c1ccccc1F)=NC2 [Midazolam, midazolam]
[5]; measurement, mouse, ref Varkhede et al., 2018
  Fraction unbound: 0.08
[5]; species not given, ref Maurer et al., 2005, Schenk et al., 2017
  Fraction unbound: 0.046
[6]
  Mean fraction of dose excreted to urine: below 1%
[7]
  Measured plasma concentrations of parent compound in cirrhotic mice: decreased
[8]; [14]
  Fraction unbound: 0.03
[9]; Ref pH: 6.5, ref Heikkinen et al., 2012
  Solubility: 50 µg/mL
[9]; measurement, ref Poulin and Theil, 2002
  Lipophilicity: 2.95
[9]; midazolam: experimental, ref Poulin and Theil, 2002
  pKa: 5.82
[9]; [15]
  Lipophilicity: 3.33
[9]; optimized, ref Britz et al., 2019
  Lipophilicity: 3.13
[9]; prediction, ref Nguyen et al., 2016
  pKa: 6.04
[9]; prediction, ref Wishart et al., 2017
  Lipophilicity: 3.89
[9]; ref Schenk et al., 2017
  pKa: 6.14
[9]; ref Wishart et al., 2017
  pKa (Base): 6.57
[10]; ref Poulin and Theil, 2002
  Fraction unbound: 0.027

## CC[C@H](C)C(=O)O[C@H]1C[C@H](O)C=C2C=C[C@H](C)[C@H](CC[C@@H](O)C[C@@H](O)CC(=O)O)[C@H]21 [Pravastatin, pravastatin]
[11]; rats, ref Fukuda et al., 2008
  Dose found in bile: about 60%
OATP1B1
  Km: 11.5 µM
[2]
  Mean fraction of dose excreted to urine: Less than 1%
  Fraction of dose in urine (24 h), cirrhotic vs control mice: increased significantly
[3]; ref Everett et al., 1991
  Dose recovered unchanged from urine: about 41%
[9]; [14]
  Solubility: 10000 µg/mL
[9]; MSDS, ref Wishart et al., 2017
  Lipophilicity: 0.59
[9]; experimental pH=5, ref Serajuddin et al., 1991
  Lipophilicity: 1.6
[9]; experimental pH=7, ref Serajuddin et al., 1991
  Lipophilicity: -0.23
[9]; human, optimized, ref Lippert et al., 2012
  Lipophilicity: 0.82
[9]; ref Wishart et al., 2017, Puttegowda et al., 2016
  pKa (Acid): 4.2
[10]; ref Fukuda et al., 2008
  Fraction unbound: 0.672
[4]; Oatp1b2, optimized for mice with measured human Km, ref Thiel et al., 2015
  Vmax: 2.5 µmol/L/min
[4]; [16]
  Fraction unbound: 0.73

## CC(C)(C)NCC(O)COc1ccc(NC(=O)NC2CCCCC2)cc1 (centres unmarked) [Talinolol, talinolol]
[12]; possibly optimized, ref Tubic et al., 2006
  Fraction unbound: 0.45
[6]
  Mean fraction of dose excreted to urine: 4% and < 5%
[3]; after IV administration, ref Terhaag et al., 1989
  Median fraction of dose found in bile: 9.3%
[3]; ref Trausch et al., 1995
  Dose recovered unchanged from urine: about 60%
[8]; measured, ref Obach et al., 2008
  Fraction unbound: 0.39
[13]; 2 h bile
  Amount in bile, cirrhotic vs control mice: significantly increased
[13]; mice, 2 h after drug administration
  Mean fraction of dose excreted to bile: 0.5% and < 1%
[9]; [17]
  Lipophilicity: 2.91
[9]; [18]
  Lipophilicity: 2.8
[9]; at pH=7.5, ref Gramatté et al., 1996
  octanol-water partition coefficient: 12
[9]; [15]
  Lipophilicity: 2.3
[9]; ref Gramatté et al., 1996
  Lipophilicity: 1.08
  Solubility: 3400 µM
[9]; ref Matthaei et al., 2016
  pKa (Base): 9.3
[9]; rounded values, ref DrugBank
  logP from the DrugBank database as quoted in text: 2.9
[4]; [16]
  Fraction unbound: 0.65

## Cc1cccc(Nc2ccncc2S(=O)(=O)NC(=O)NC(C)C)c1 [Torsemide, torsemide]
[12]; optimized, ref Krauss et al., 2017
  Fraction unbound: 0.00125
[11]; rat, after 8h cannulation, ref Lee et al., 2005
  Dose found in bile: about 2%
[11]; ref Lee 2005
  Tissue-to-plasma ratio, liver: 0.336
  Tissue-to-plasma ratio, muscle: 0.069
[2]
  Mean fraction of dose excreted to urine: 4%
  Fraction of dose in urine (24 h), cirrhotic vs control mice: increased significantly
[3]; after a single oral dose, ref Knauf and Mutschler, 1998, FDA, 2017
  Recovered from urine: about 20%
[3]; ref FDA, 2017
  Share excreted to urine: about 20%
  Share of drug clearance by hepatic metabolism: about 80%
[8]; experimental, ref Knauf and Mutschler, 1998, Wishart et al., 2017
  Fraction unbound: < 0.01
[9]; DrugBank, experimental, ref Wishart et al., 2017
  Lipophilicity: 3.356
[9]; [17]
  Lipophilicity: 1.76
  Solubility: 55.96 µg/mL
[9]; [18]
  Lipophilicity: 1.86
[9]; mouse, optimized, ref Thiel et al., 2015
  Lipophilicity: 2.023
[9]; [15]
  Lipophilicity: 2.3
[9]; ref FDA, 2017, Wishart et al.
  pKa: 7.1
[9]; ref Knauf and Mutschler, 1998
  Lipophilicity: 0.57
  pKa: 7
[10]; experimental, ref Lee et al., 2005
  Fraction unbound: 0.061
[10]; experimental, ref Lee et al., 2005, listed as torsemide
  Fraction unbound: 0.06
